Assay results published in US20180289709A1, “METHODS OF TREATING INFLAMMATION” (priority 2010, published 2018).

Tested on: primary mouse lung fibroblasts (MLFs)
Conditions: 1 μM

CC[C@@H]1C(=O)N(C)c2cnc(Nc3ccc(C(=O)NC4CCN(C)CC4)cc3OC)nc2N1C1CCCC1 [BI 2536]
viral replication (luciferase activity in reporter cells): elevated replication
